# Patent publication US20210330611A1, “THERAPY FOR NEUROLOGICAL DISEASES/DISORDERS” (priority 2020, published 2021)
# Structures can show the parent of a compound that is named as a salt. Where two headings read alike, the source gives them in different places.
# Tests used:
# [1] = test system: fibrin-induced microglia activation; assay: Image-based assay of fibrin-induced microglia activation (HTS and dose response); assay type: cell-based, rat; conditions: for inhibition at 10 µM: Rattus norvegicus, Microglia, read-out: Fibrin % inhibition
# [2] = test system: LPS-induced microglia activation; assay: Image-based assay of LPS-induced microglia activation (HTS and dose response); assay type: cell-based, rat; conditions: for inhibition at 10 µM: Rattus norvegicus, Microglia, read-out: LPS % inhibition
# [3] = test system: fibrin- and LPS-induced microglia activation; assay: cells; assay type: cell-based, rat
# primary rat microglia [4] = assay: Cell toxicity (dead cells, size <150 μm2) in LPS assay; conditions: for IC50: read-out: Cell Toxicity IC50 (uM) [LPS assay]
# primary rat microglia [5] = assay: Cell toxicity (dead cells, size <150 μm2) in coated fibrin (cFib) assay; conditions: for IC50: read-out: Cell Toxicity IC50 (uM) [cFib assay];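 for Fibrin % cell toxicity: share of dead cells sized under 150 µm2 at 10 µM in fibrin-stimulated microglia HTS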
# [6] = primary microglia HTS, fibrin stimulation, activation = cell size >800 μm2
# [7] = 48 h, primary microglia HTS, LPS stimulation, activation = cell size >800 μm2
# [8] = quadrant by fibrin and LPS inhibition in HTS of 1907 compounds
# [9] = primary microglia HTS, LPS stimulation, toxicity = cell size <150 μm2
# [10] = primary microglia HTS, fibrin stimulation, toxicity = cell size <150 μm2
# [11] = primary microglia HTS, fibrin stimulation, increased cell size (>800 μm^2) as marker of activation
# [12] = 48 h, primary microglia HTS, LPS stimulation, increased cell size (>800 μm^2) as marker of activation
# [13] = primary microglia HTS, LPS stimulation, decreased size (<150 μm^2) as marker of toxicity
# [14] = primary microglia HTS, fibrin stimulation, decreased size (<150 μm^2) as marker of toxicity
# [15] = primary HTS, 10 μM, fibrin-stimulated primary microglia
# [16] = primary HTS, 10 μM, LPS-stimulated primary microglia
# [17] = primary HTS, 10 μM, LPS assay, dead cells size <150 μm2
# [18] = primary HTS, 10 μM, fibrin assay, dead cells size <150 μm2
# [19] = primary microglia HTS, 10 μM, fibrin-stimulated, cell size >800 μm^2 as marker of activation
# [20] = primary microglia HTS, 10 μM, LPS-stimulated, cell size >800 μm^2 as marker of activation
# [21] = HTS of 1907 compounds, quadrant by fibrin and LPS inhibition
# [22] = primary microglia HTS, 10 μM, LPS assay, cell size <150 μm^2 as marker of toxicity
# [23] = primary microglia HTS, 10 μM, fibrin assay, cell size <150 μm^2 as marker of toxicity
# [24] = primary microglia HTS, LPS stimulation, increased cell size (>800 μm^2) as marker of activation
structure (smiles),measurement,setting,value
C1N2CN3CN1CN(C2)C3 [Hexamethylenetetramine],inhibition at 10 µM,[1]; [6],-9%
same,inhibition at 10 µM,[2]; [7],20%
same,Quadrant (FIG. 5b),[3]; [8],Q4
same,LPS % cell toxicity,primary rat microglia [4]; [9],0%
same,Fibrin % cell toxicity,primary rat microglia [5]; [10],1%
Cc1ccsc1/C=C/C1=NCCCN1C [Morantel Citrate],inhibition at 10 µM,[1]; [11],-11%
same,inhibition at 10 µM,[2]; [12],11%
same,Quadrant (FIG. 5b),[3]; [8],Q4
same,LPS % cell toxicity,primary rat microglia [4]; [13],0%
same,Fibrin % cell toxicity,primary rat microglia [5]; [14],1%
CC(C)(C)CC(C)(C)c1ccc(O)c(Cc2ccc(Cl)cc2Cl)c1 [Clofoctol],inhibition at 10 µM,[1]; [15],-26%
same,inhibition at 10 µM,[2]; [16],2%
same,Quadrant (FIG. 5b),"[3]; primary HTS, 10 μM",Q4
same,LPS % cell toxicity,primary rat microglia [4]; [17],0%
same,Fibrin % cell toxicity,primary rat microglia [5]; [18],0%
O=C(COc1ccc(Cl)cc1)N1CCN(Cc2ccc3c(c2)OCO3)CC1 [Fipexide Hydrochloride],inhibition at 10 µM,[1]; [6],-15%
same,inhibition at 10 µM,[2]; [7],11%
same,Quadrant (FIG. 5b),[3]; [8],Q4
same,LPS % cell toxicity,primary rat microglia [4]; [9],0%
same,Fibrin % cell toxicity,primary rat microglia [5]; [10],0%
CCCCC/C=C\CCC(=O)N[C@H]1[C@H](Oc2c3cc4cc2Oc2ccc(cc2Cl)[C@@H](O[C@@H]2O[C@H](CO)[C@@H](O)[C@H](O)[C@H]2NC(C)=O)[C@@H]2NC(=O)[C@H](NC(=O)[C@@H]4NC(=O)[C@H]4NC(=O)[C@@H](Cc5ccc(c(Cl)c5)O3)NC(=O)[C@H](N)c3ccc(O)c(c3)Oc3cc(O)cc4c3)c3ccc(O)c(c3)-c3c(O[C@H]4O[C@H](CO)[C@@H](O)[C@H](O)[C@@H]4O)cc(O)cc3[C@@H](C(=O)O)NC2=O)O[C@H](CO)[C@@H](O)[C@@H]1O [Teicoplanin [a(2-1) Shown]],Fibrin % inhibition,[1]; [19],43%
same,LPS % inhibition,[2]; [20],20%
same,Quadrant (FIG. 5b),[3]; [21],Q4
same,LPS % cell toxicity,primary rat microglia [4]; [22],0%
same,Fibrin % cell toxicity,primary rat microglia [5]; [23],1%
C=COCC(F)(F)F [Fluroxene],inhibition at 10 µM,[1]; [6],-19%
same,inhibition at 10 µM,[2]; [7],11%
same,Quadrant (FIG. 5b),[3]; [8],Q4
same,LPS % cell toxicity,primary rat microglia [4]; [9],0%
same,Fibrin % cell toxicity,primary rat microglia [5]; [10],0%
CCc1nn(CCCN2CCN(c3cccc(Cl)c3)CC2)c(=O)n1CCOc1ccccc1 [Nefazodone],inhibition at 10 µM,[1]; [11],-37%
same,inhibition at 10 µM,[2]; [12],3%
same,Quadrant (FIG. 5b),[3]; [8],Q4
same,LPS % cell toxicity,primary rat microglia [4]; [13],0%
same,Fibrin % cell toxicity,primary rat microglia [5]; [14],0%
CC(C)(C)NCC(O)COc1cccc2c1CCC(=O)N2 (stereo not drawn) [Carteolol],inhibition at 10 µM,[1]; [15],12%
same,inhibition at 10 µM,[2]; [16],7%
same,Quadrant (FIG. 5b),"[3]; primary HTS, 10 μM",Q4
same,LPS % cell toxicity,primary rat microglia [4]; [17],0%
same,Fibrin % cell toxicity,primary rat microglia [5]; [18],0%
CN1CCC(=C2c3ccccc3CC(=O)c3sccc32)CC1 [Ketotifen],inhibition at 10 µM,[1]; [6],1%
same,inhibition at 10 µM,[2]; [7],15%
same,Quadrant (FIG. 5b),[3]; [8],Q4
same,LPS % cell toxicity,primary rat microglia [4]; [9],0%
same,Fibrin % cell toxicity,primary rat microglia [5]; [10],1%
COc1cc(O)c(C(=O)c2ccccc2)cc1S(=O)(=O)O [Sulisobenzone],inhibition at 10 µM,[1]; [19],-19%
same,inhibition at 10 µM,[2]; [20],-2%
same,Quadrant (FIG. 5b),[3]; [21],Q4
same,LPS % cell toxicity,primary rat microglia [4]; [22],0%
same,Fibrin % cell toxicity,primary rat microglia [5]; [23],0%
O=C(O)CCCc1ccccc1 [Gamma-Phenyl-Butyric Acid],inhibition at 10 µM,[1]; [6],-36%
same,inhibition at 10 µM,[2]; [7],9%
same,Quadrant (FIG. 5b),[3]; [8],Q4
same,LPS % cell toxicity,primary rat microglia [4]; [9],0%
same,Fibrin % cell toxicity,primary rat microglia [5]; [10],0%
Cc1ccc(C(=O)Nc2ccc(S(=O)(=O)O)c3cc(S(=O)(=O)O)cc(S(=O)(=O)O)c23)cc1NC(=O)c1cccc(NC(=O)Nc2cccc(C(=O)Nc3cc(C(=O)Nc4ccc(S(=O)(=O)O)c5cc(S(=O)(=O)O)cc(S(=O)(=O)O)c45)ccc3C)c2)c1 [Suramin],inhibition at 10 µM,[1]; [19],-5%
same,inhibition at 10 µM,[2]; [20],18%
same,Quadrant (FIG. 5b),[3]; [21],Q4
same,LPS % cell toxicity,primary rat microglia [4]; [22],0%
same,Fibrin % cell toxicity,primary rat microglia [5]; [23],0%
CCCNC(C)(C)COC(=O)c1ccccc1 [Meprylcaine Hydrochloride],inhibition at 10 µM,[1]; [11],-10%
same,inhibition at 10 µM,[2]; [12],7%
same,Quadrant (FIG. 5b),[3]; [8],Q4
same,LPS % cell toxicity,primary rat microglia [4]; [13],0%
same,Fibrin % cell toxicity,primary rat microglia [5]; [14],0%
O=c1[nH]c(=O)c2ccccc2o1 [Carsalam],inhibition at 10 µM,[1]; [15],-7%
same,inhibition at 10 µM,[2]; [16],11%
same,Quadrant (FIG. 5b),"[3]; primary HTS, 10 μM",Q4
same,LPS % cell toxicity,primary rat microglia [4]; [17],1%
same,Fibrin % cell toxicity,primary rat microglia [5]; [18],0%
O=C(O)Cc1cc(I)c(Oc2ccc(O)c(I)c2)c(I)c1 [Tiratricol],inhibition at 10 µM,[1]; [19],-51%
same,inhibition at 10 µM,[2]; [20],13%
same,Quadrant (FIG. 5b),[3]; [21],Q4
same,LPS % cell toxicity,primary rat microglia [4]; [22],0%
same,Fibrin % cell toxicity,primary rat microglia [5]; [23],1%
CC#CCn1c(N2CCC[C@@H](N)C2)nc2c1c(=O)n(Cc1nc(C)c3ccccc3n1)c(=O)n2C [Linagliptin],inhibition at 10 µM,[1]; [6],2%
same,inhibition at 10 µM,[2]; [7],14%
same,Quadrant (FIG. 5b),[3]; [8],Q4
same,LPS % cell toxicity,primary rat microglia [4]; [9],1%
same,Fibrin % cell toxicity,primary rat microglia [5]; [10],1%
C[N+](C)(C)CCCCCC[N+](C)(C)C [Hexamethonium],inhibition at 10 µM,[1]; [11],108%
same,inhibition at 10 µM,[2]; [12],100%
same,Quadrant (FIG. 5b),[3]; [8],Q2
same,LPS % cell toxicity,primary rat microglia [4]; [13],2%
same,Fibrin % cell toxicity,primary rat microglia [5]; [14],9%
Cc1ncc(COP(=O)([O-])[O-])c(CN(CCN(CC(=O)[O-])Cc2c(COP(=O)([O-])[O-])cnc(C)c2[O-])CC(=O)[O-])c1[O-].[H+].[H+].[H+].[Mn+2].[Na+].[Na+].[Na+] [Mangafodipir Trisodium],Fibrin % inhibition,[1]; [11],1%
same,LPS % inhibition,[2]; [24],11%
same,Quadrant (FIG. 5b),[3]; [8],Q4
same,LPS % cell toxicity,primary rat microglia [4]; [13],0%
same,Fibrin % cell toxicity,primary rat microglia [5]; [14],1%
"CCC(=O)OCC(=O)[C@@]1(OC(=O)CC)[C@H](C)C[C@H]2[C@H]3[C@H]([C@@H](O)C[C@@]21C)[C@@]1(C)C=CC(=O)C=C1C[C@H]3Cl [Alclometazone dipropionate, reference compound]",Fibrin Selectivity (LOG10),[1],3.33
same,IC50,"[1]; Table 1, dose response 0.001-20 μM, triplicates, primary rat microglia, 48 h, read-out: Fibrin IC50",< 0.001 µM
same,IC50,"[1]; Table 3, read-out: Fibrin IC50 (uM) (Suppl. Table 7)",< 0.001 µM
same,IC50,"[1]; Table 6, read-out: Fibrin IC50 (uM) (Suppl. Table 7)",< 0.001 µM
same,IC50,"[1]; dose response, fibrin-induced microglia activation, read-out: Fibrin IC50",< 0.001 µM
same,Fibrin Selectivity (LOG10),"[1]; fibrin vs LPS, LOG10, Table 6",3.33
same,Fibrin Selectivity,"[1]; fibrin vs LPS, Table 6",2153
same,IC50,"[1]; fibrin-induced microglia activation, dose response, read-out: Fibrin IC50 (uM) (Suppl. Table 7)",< 0.001 µM
same,Fibrin Selectivity,[1]; listed as Alclometazone Dipropion,≥ 2153
same,Fibrin Selectivity,[1]; listed as Alclometazone Dipropionate,2153
same,Fibrin % inhibition,[1]; [11],105%
same,IC50,"[2]; LPS-induced microglia activation, dose response, read-out: LPS IC50 (uM) (Suppl. Table 7)",2 µM
same,IC50,"[2]; Table 1, dose response 0.001-20 μM, triplicates, primary rat microglia, 48 h, read-out: LPS IC50",2 µM
same,IC50,"[2]; Table 3, read-out: LPS IC50 (uM) (Suppl. Table 7)",2 µM
same,IC50,"[2]; Table 6, read-out: LPS IC50 (uM) (Suppl. Table 7)",2 µM
same,IC50,"[2]; dose response, LPS-induced microglia activation, read-out: LPS IC50",2 µM
same,LPS % inhibition,[2]; [24],82%
same,Hit,[3]; HTS hit classification,HIT (Hits were defined as molecules that exhibited greater than 50% inhibition of either fibrin or LPS activation)
same,Quadrant (FIG. 5b),[3]; [21],Q2
same,Quadrant (FIG. 5b),"[3]; Table 1, screen at 10 μM",Q2
same,Cherry-picked Hit (Suppl. Table 7),[3]; Table 3,HIT (Hits were defined as molecules that exhibited greater than 50% inhibition of either fibrin or LPS activation)
same,Quadrant (FIG. 5b),"[3]; Table 3, screen at 10 μM",Q2
same,Cherry-picked Hit (Suppl. Table 7),[3]; hit classification in microglia HTS,HIT (Hits were defined as molecules that exhibited greater than 50% inhibition of either fibrin or LPS activation)
same,Cherry-picked Hit (Suppl. Table 7),"[3]; microglia HTS, Table 6",HIT (Hits were defined as molecules that exhibited greater than 50% inhibition of either fibrin or LPS activation)
same,Quadrant (FIG. 5b),"[3]; microglia HTS, Table 6",Q2
same,Quadrant (FIG. 5b),[3]; [8],Q2
same,LPS % cell toxicity,primary rat microglia [4]; [13],2%
same,IC50,primary rat microglia [4]; LPS assay,> 20 µM
same,IC50,"primary rat microglia [4]; LPS assay, Table 6",> 20 µM
same,IC50,primary rat microglia [4]; Table 3,> 20 µM
same,Fibrin % cell toxicity,primary rat microglia [5]; [14],2%
same,IC50,primary rat microglia [5]; Table 3,> 20 µM
same,IC50,primary rat microglia [5]; cFib assay,> 20 µM
same,IC50,"primary rat microglia [5]; cFib assay, Table 6",> 20 µM
CCN(CC)CCOC(=O)C(Cc1cccc2ccccc12)CC1CCCO1 (stereo not drawn) [Nafronyl Oxalate],inhibition at 10 µM,[1]; [11],15%
same,inhibition at 10 µM,[2]; [12],15%
same,Quadrant (FIG. 5b),[3]; [8],Q4
same,LPS % cell toxicity,primary rat microglia [4]; [13],0%
same,Fibrin % cell toxicity,primary rat microglia [5]; [14],1%
